Where two headings read alike, the source gives them in different places. Blank lines part the entries; values can stand above or below the compound they belong to.
How the values were obtained:
CRABP-2 = CRABP-2 protein expression in human adult fibroblasts (dot blot immunostaining) as a measure of retinoid activity; format: cell-based; conditions: for CRABP-2 % as Control: control = 100%; for CRABP-2 production: human adult fibroblasts; for Synergy of phytoestrogen with retinoids (in words): soluble form, CRABP-2 in fibroblasts
Description: Human adult fibroblasts obtained from sun-protected inner arm of 25-30 year […] volunteer were used in this. Cells were grown in 1:1 DMEM/Hams F12 media containing 10% FBS, maintained at 37° C. in a 5% CO2 atmosphere under normal atmosphere oxygen tension. Third passage adult fibroblasts were grown in DMEM media with 10% FBS in 12-well plates at a seeding density of 2500 cells/ml/well. The cells at 80% confluence were rinsed in serum free and phenol red free (PRF) DMEM media twice. Pre-treatment with phyto-compounds for 4 hours was conducted and then dosed with retinoids and was incubated for 48 hours. After the incubation, the wells were washed twice with 1×PBS and the cell monolayer was harvested in 100 μl cell lysis buffer (contains 1×PBS, 1% Triton X, 0.5% sodium deoxycholate, 0.1% SDS containing protease inhibitor (10 mg/ml PMSF in isopropanol, 10 μl/ml). The suspension was spun at 14000 rpm for 10 minutes, the supernatant collected and an aliquot of this supernatant was used for protein quantification. Protein concentration was determined using Pierce protein kit. The remainder of 100 μl supernatant (cell lysate) was denatured in a mixture of 40 μl sample buffer (NOVEX) and 0.5% Beta mercaptoethanol (BME) and by boiling the sample for 5 minutes.
(b) Detection of Cellular Retinoic Acid Binding Protein 2 (CRABP-2)
These proteins act in regulating the intracellular concentration of retinoids by acting as both storage or shuttle proteins in retinoid metabolism. High or low levels of retinoids cause cell damage, including cell death, therefore regulation of constant levels of retinoids and its binding proteins are very critical for cell survival. The levels of this protein are regulated by the amount of retinoic acid within the cells. Higher cellular levels of retinoids increase the expression of CRABP-2. Therefore, the amount of this protein in the cells, is a measure of the retinoid activity of the cells. Skin cells contain high levels of CRABP-2 both in the epidermis and the dermis. CRABP-2 response to retinoid administration in fibroblasts in vitro is used as a reproducible measure of retinoid bioactivity that predict human skin responses. […] Increase in CRABP-2 is also associated with increased epidermal differentiation, and dermal retinoid action. Therefore, in these studies CRABP-2 expression of fibroblasts was used as a measure of retinoid activity leading to increased epidermal differentiation (skin conditioning and dry skin benefit) and dermal collagen and extracellular matrix synthesis (anti-aging, anti-wrinkling benefits).
To measure the levels of CRABP-2 in the fibroblasts, the equal amount of protein of cell supernatant were loaded onto nitrocellulose blots in a dot blot apparatus as instructed by the manufacturer, and immunostaining was carried out using monoclonal antibodies to CRABP-2 according to standard procedures. The CRABP-2 protein band was visualized in the Dot Blots using the chemiluminescence system obtained from Santa Cruz Biotechnology (SantaCruz, Calif.). The bands in the film were quantitated by dens tometric scanning, the data from the triplicate samples were calculated as % of control and expressed in the following tables as % increase over control (with control as 100%) +/−SD triplicates.

[1] = Stability of retinol in aqueous ethanol in the presence of phytoestrogenic flavonoids (OD 360 nm); format: physicochemical; conditions: for Retinol degraded: 0.001 %
Description: Retinol was dissolved as a 10% solution in aqueous ethanol (1:1 water:ethanol). This solution was diluted to 0.001%, or approximately 30 μM). This solution gave an OD of about 0.35 absorption unit at 360 nm in a 96 well plate spectrophotometer.
Aqueous ethanolic stock solutions of the genistein, daidzein were prepared as 0.1%, 0.01% or 0.001%. To 200 μl of 0.001% retinol solution in a 96 well plate was added 20 μl of the flavonoid (i.e. 1-10 dilution) giving a final flavonoid concentration of 0.01, 0.001 and 0.0001%. The plates were mixed and an initial OD reading was taken at 360 nm. The plates were incubated at room temperature in the dark for up to 2 days and subsequent readings were taken at 8, 24 and 48 hours. The OD readings at these time points were normalized to the 0 time point reading. The retinol stability was expressed as % of retinol (OD reading) at 0 time.
The following tables show the effect of genistein and daidzein on destabilizing retinol. The experiment was done as described in methods section. The OD readings from duplicate measurements were averaged and given here.

[2] = 100 nM retinoid alone, 48 hours

SMILES: O=c1c(-c2ccc(O)cc2)coc2cc(O)cc(O)c12 [Genistein]
CRABP-2 stimulation (in words) (CRABP-2; 1 μM alone, delivered in DMSO: ethanol): stimulated CRABP-2 significantly | CRABP-2 % as Control (CRABP-2; 1 μM phytoestrogen alone): 655 +/− 247% | CRABP-2 production (CRABP-2; 1 μM phytoestrogen alone): 1.9 +/− 0.71 | Synergy of phytoestrogen with retinoids (in words) (CRABP-2): stimulate retinoid activity in a synergistic manner | Effect of the flavonoid on retinol stability (in words) ([1]; 0.0001-0.01% flavonoid with 0.001% retinol): marked increases in the instability of retinol

SMILES: O=c1c(-c2ccc(O)cc2)coc2cc(O)ccc12 [Daidzein]
CRABP-2 % as Control (CRABP-2; 1 μM phytoestrogen alone): 513 +/− 227% | CRABP-2 production (CRABP-2; 1 μM phytoestrogen alone): 1.49 +/− 0.66 | Synergy of phytoestrogen with retinoids (in words) (CRABP-2): stimulate retinoid activity in a synergistic manner | Effect of the flavonoid on retinol stability (in words) [1]: marked increases in the instability of retinol

SMILES: CC1=C(/C=C/C(C)=C/C=C/C(C)=C/C(=O)O)C(C)(C)CCC1 [Retinoic acid, reference compound]
CRABP-2 % as Control (CRABP-2; 1 nM retinoid alone): 335 +/− 162% | CRABP-2 production (CRABP-2; 1 nM retinoid alone, 48 hours): 0.97 +/− 0.47 | CRABP-2 % as Control (CRABP-2; 10 nM retinoid alone): 428 +/− 101% | CRABP-2 production (CRABP-2; 10 nM retinoid alone, 48 hours): 1.24 +/− 0.29

SMILES: CCCCC/C=C\C/C=C\CCCCCCCC(=O)OC/C=C(C)/C=C/C=C(C)/C=C/C1=C(C)CCCC1(C)C [Retinyl Linoleate]
CRABP-2 % as Control (CRABP-2; 100 nM retinoid alone): 181 +/− 110% | CRABP-2 production (CRABP-2; [2]): 0.52 +/− 0.3

SMILES: CCCCCCCCCCCCCCCC(=O)OC/C=C(C)/C=C/C=C(C)/C=C/C1=C(C)CCCC1(C)C [Retinyl Palmitate]
CRABP-2 % as Control (CRABP-2; 100 nM retinoid alone): 434 +/− 177% | CRABP-2 production (CRABP-2; [2]): 1.26 +/− 0.51

Retinol degraded ([1]; 8 h): 8% | Retinol degraded ([1]; 24 h): 14% | Retinol degraded ([1]; 48 h): 19%
SMILES: CC1=C(/C=C/C(C)=C/C=C/C(C)=C/CO)C(C)(C)CCC1 [Retinol]

SMILES: CC(=O)OC/C=C(C)/C=C/C=C(C)/C=C/C1=C(C)CCCC1(C)C [Retinyl Acetate]
CRABP-2 % as Control (CRABP-2; 100 nM retinoid alone): 209 +/− 118% | CRABP-2 production (CRABP-2; [2]): 0.60 +/− 0.32
